Square brackets hold non-standard residues; d marks the D form. Peptide text beside a SMILES is read from it. * marks the point of attachment. ξ: configuration not given here. Palmitoyl = CCCCCCCCCCCCCCCC(=O)*; ξF = NC(Cc1ccccc1)C(=O)O
These molecules were tested against CXCR4 (Homo sapiens, UniProt P61073) (assay: Calcium flux assay in CCRF-CEM cells (SDF-1α activation of CXCR4; intrinsic agonist activity)). Details: SDF-1α activation of CXCR4, Calcium-4 dye, read-out: IC50 (nM), CXCR4 i1 loop compound Calcium Flux Data.
Format: cell-based
Set-up: a human T-cell ALL line that endogenously expresses CXCR4; endogenous in cells; host or cells: CCRF-CEM (human T-cell ALL line)
Description: Calcium Flux Assay is one of the most popular cell-based GPCR functional assays. It most often uses calcium sensing fluorescent dyes such as fura2 AM, fluo-4 and Calcium-4 to measure changes in intracellular calcium concentration. It is used mainly to detect GPCR signaling via Gaq subunit. Activation of these Gq-coupled GPCRs leads to activation of phospholipase C, which subsequently leads to increase in inositol phosphate production. IP3 receptors on endoplasmic reticulum sense the change then release calcium into cytoplasm. Intracellular calcium binding to the fluorescent dyes can be detected by instruments that quantify fluorescent intensities, such as FLIPR Tetra, Flexstation (MDS) and FDSS (Hamamatsu). In additional to assess Gq-couple receptor signaling, calcium flux assay can also be used to study Gs and Gi couple receptors by co-expressing CNG (cyclic nucleotide gated calcium channel) or chimeric G-proteins (Gqi5, Gsi5 for example). Activation of some Gi-coupled receptors can also be detected by calcium flux assay via Gβγmediated phospholipase C activation.
The calcium flux assay was used to assess SDF-1α activation of CXCR4 in CCRF-CEM cells (human T lymphoblasts from acute lymphoblastic leukemia). CCRF-CEM cells were seeded into 96-well black plates with clear bottom at 200K/well in RPMI 1640 media with 20 mM HEPES containing 0.2% BSA. After dye loading by incubating with Calcium-4 dye at 37° C. for 1 hour, cell plates were read at 37° C. using the Flexstation 3 workstation. The addition of test compounds or reference antagonists was accomplished either by manual pipetting or by liquid handling using the Flexstation. The latter allows the assessment of intrinsic agonist activity of the test compounds by measuring initial changes in fluorescent intensity. After incubation of 24 minutes at 37° C., SDF-1α was added and receptor activation was assessed by measuring changes in fluorescent intensity using the Flexstation.

Sequence of CXCR4 (P61073 whole entry): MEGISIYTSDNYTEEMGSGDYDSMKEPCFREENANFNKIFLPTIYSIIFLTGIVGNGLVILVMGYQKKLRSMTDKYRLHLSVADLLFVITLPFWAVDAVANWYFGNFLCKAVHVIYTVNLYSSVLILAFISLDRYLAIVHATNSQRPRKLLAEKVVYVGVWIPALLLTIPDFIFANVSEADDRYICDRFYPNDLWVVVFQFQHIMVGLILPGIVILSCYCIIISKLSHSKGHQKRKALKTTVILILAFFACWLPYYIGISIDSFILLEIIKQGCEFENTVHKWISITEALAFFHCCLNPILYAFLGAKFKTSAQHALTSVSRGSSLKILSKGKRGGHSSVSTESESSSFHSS

| IC50 [nM] | Compound |
| --- | --- |
| 72 | CCCCCCCCCCCCCCCC(=O)N[C@@H](CCSC)C(=O)NCC(=O)N[C@@H](Cc1ccc(O)cc1)C(=O)N[C@@H](CCC(N)=O)C(=O)N[C@@H](CCCCN)C(=O)N[C@@H](CCCCN)C(=O)N[C@H](CC(C)C)C(=O)N[C@@H](CCCNC(=N)N)C(=O)N[C@@H](CO)C(=O)N[C@@H](CCSC)C(=O)N[C@H](C(=O)N[C@@H](CC(=O)O)C(=O)N[C@@H](CCCCN)C(=O)N[C@@H](Cc1ccc(O)cc1)C(=O)N[C@@H](CCCNC(=N)N)C(=O)N[C@@H](CC(C)C)C(N)=O)[C@@H](C)O [Compound 170] (Palmitoyl-MGYQKK[dL]RSMTDKYRL-NH2) |
| > 10000 | CCCCCCCCCCCCCCCC(=O)N[C@@H](CCSC)C(=O)NCC(=O)N[C@@H](Cc1ccc(O)cc1)C(=O)N[C@@H](CCC(N)=O)C(=O)N[C@H](CCCCN)C(=O)N[C@@H](CCCCN)C(=O)N[C@@H](CC(C)C)C(=O)N[C@@H](CCCNC(=N)N)C(=O)N[C@@H](CO)C(=O)N[C@@H](CCSC)C(=O)N[C@H](C(=O)N[C@@H](CC(=O)O)C(=O)N[C@@H](CCCCN)C(=O)NC(Cc1ccccc1)C(=O)N[C@@H](CCCNC(=N)N)C(=O)N[C@@H](C)C(N)=O)[C@@H](C)O (stereo partly shown) [Compound 153] (Palmitoyl-MGYQ[dK]KLRSMTDK[ξF]RA-NH2) |
| > 10000 | CCCCCCCCCCCCCCCC(=O)N[C@@H](CCSC)C(=O)NCC(=O)N[C@@H](Cc1ccc(O)cc1)C(=O)N[C@@H](CCC(N)=O)C(=O)N[C@@H](CCCCN)C(=O)N[C@@H](CCCCN)C(=O)N[C@@H](CC(C)C)C(=O)N[C@@H](CCCNC(=N)N)C(=O)N[C@@H](CO)C(=O)N[C@@H](CCSC)C(=O)N[C@H](C(=O)N[C@@H](CC(=O)O)C(=O)N[C@@H](CCCCN)C(=O)N[C@H](Cc1ccc(O)cc1)C(=O)N[C@@H](CCCNC(=N)N)C(=O)N[C@@H](CC(C)C)C(N)=O)[C@@H](C)O [Compound 161] (Palmitoyl-MGYQKKLRSMTDK[dY]RL-NH2) |
| 72 | CCCCCCCCCCCCCCCC(=O)N[C@@H](CCSC)C(=O)NCC(=O)N[C@@H](Cc1ccc(O)cc1)C(=O)N[C@@H](CCC(N)=O)C(=O)N[C@@H](CCCCN)C(=O)N[C@@H](CCCCN)C(=O)N[C@@H](CC(C)C)C(=O)N[C@H](CCCNC(=N)N)C(=O)N[C@@H](CO)C(=O)N[C@@H](CCSC)C(=O)N[C@H](C(=O)N[C@@H](CC(=O)O)C(=O)N[C@@H](CCCCN)C(=O)N[C@@H](Cc1ccc(O)cc1)C(=O)N[C@@H](CCCNC(=N)N)C(=O)N[C@@H](CC(C)C)C(N)=O)[C@@H](C)O [Compound 171] (Palmitoyl-MGYQKKL[dR]SMTDKYRL-NH2) |

Source: patent US9096646B2, “CXCR4 receptor compounds” (priority 2008, dated 2015)
